Experimental data from patent US8466166B2, “Benzimidazole derivatives as selective acid pump inhibitors” (Raqualia Pharma Inc., priority 2006, dated 2013).

Molecular target: T1, porcine gastric H+/K+-ATPase (Sus scrofa, UniProt P19156)
T1 construct: The gastric vesicles were collected from interface on 0.25 M sucrose layer containing 7% Ficoll; from tissue; host or cells: mucous membrane of fresh porcine stomachs (gastric vesicles)
Assay: Ion-leaky porcine gastric H+/K+-ATPase inhibition
Format: biochemical
Conditions: ion-leaky lyophilized porcine gastric vesicles, 5 mM KCl, pH 6.4, 37° C., 30 minutes; read-out: IC50 values of the inhibitory activity
Protocol: The porcine gastric vesicles for Porcine gastric H^+/K^+-ATPase inhibition assays were prepared from mucous membrane in fresh porcine stomachs by homogenization with a tight-fitted polytetrafluoroethylene (Teflone®) homogenizer in 0.25 M sucrose at 4° C. The crude pellet was removed with centrifugation at 20,000 g for 30 min. Then supernatant was centrifuged at 100,000 g for 30 min. The resulting pellet was re-suspended in 0.25 M sucrose, and then subjected to density gradient centrifugation at 132,000 g for 90 min. The gastric vesicles were collected from interface on 0.25 M sucrose layer containing 7% Ficoll™ PM400 (Amersham Biosciences). This procedure was performed in a cold room.
Ion-leaky porcine gastric H^+/K^+-ATPase inhibition was measured according to the modified method described in Biochemical Pharmacology, 1988, 37, 2231-2236.
The isolated vesicles were lyophilized, and then kept in deep-freezer until use. For enzyme assay, lyophilized vesicles were reconstituted with 3 mM MgSO4 containing 40 mM Bis-tris (pH 6.4 at 37° C.).
Enzyme reaction was performed incubating 5 mM KCl, 3 mM Na2ATP, 3 mM MgSO4 and 1.0 μg of reconstituted vesicles for 30 minutes at 37° C. in a final 60 μl of reaction mixture (40 mM Bis-tris, pH 6.4) with or without the test compound. Enzyme reaction was stopped by adding 10% sodium dodecyl sulphate (SDS). Released inorganic phosphate from ATP was detected by incubation with mixture of 1 part of 35 mM ammonium molybdate tetrahydrate in 15 mM Zinc acetate hydrate and 4 parts of 10% ascorbic acid (pH 5.0), resulting in phosphomolybdate, which has optical density at 750 nm.

T1 sequence (P19156 2-1034 limits assumed): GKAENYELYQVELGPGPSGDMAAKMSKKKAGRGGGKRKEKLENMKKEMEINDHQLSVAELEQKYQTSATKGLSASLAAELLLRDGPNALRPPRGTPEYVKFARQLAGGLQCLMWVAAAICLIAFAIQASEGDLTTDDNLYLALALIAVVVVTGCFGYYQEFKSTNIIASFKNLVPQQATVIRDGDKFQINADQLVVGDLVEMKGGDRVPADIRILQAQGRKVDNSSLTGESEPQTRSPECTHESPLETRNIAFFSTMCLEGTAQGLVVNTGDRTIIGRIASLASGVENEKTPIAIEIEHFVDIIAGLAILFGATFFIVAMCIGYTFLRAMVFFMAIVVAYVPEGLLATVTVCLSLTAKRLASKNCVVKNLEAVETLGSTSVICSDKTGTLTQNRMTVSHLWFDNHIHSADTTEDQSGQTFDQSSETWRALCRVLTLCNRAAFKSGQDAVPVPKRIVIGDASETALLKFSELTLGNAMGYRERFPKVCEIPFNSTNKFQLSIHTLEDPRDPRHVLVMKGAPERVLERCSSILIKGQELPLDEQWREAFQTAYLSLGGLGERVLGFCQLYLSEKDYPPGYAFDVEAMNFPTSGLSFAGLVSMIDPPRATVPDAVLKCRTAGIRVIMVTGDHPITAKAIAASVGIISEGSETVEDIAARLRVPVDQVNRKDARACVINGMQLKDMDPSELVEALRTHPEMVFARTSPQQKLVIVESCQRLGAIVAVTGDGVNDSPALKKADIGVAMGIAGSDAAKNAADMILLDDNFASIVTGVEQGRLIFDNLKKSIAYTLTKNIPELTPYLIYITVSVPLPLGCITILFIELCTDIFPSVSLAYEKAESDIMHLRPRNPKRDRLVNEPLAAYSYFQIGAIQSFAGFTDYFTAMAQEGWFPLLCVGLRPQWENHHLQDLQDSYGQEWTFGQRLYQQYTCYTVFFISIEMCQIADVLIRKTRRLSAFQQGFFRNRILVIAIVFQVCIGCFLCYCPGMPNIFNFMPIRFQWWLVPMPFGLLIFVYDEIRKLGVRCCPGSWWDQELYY
T1 sequence (P18434 whole entry partner): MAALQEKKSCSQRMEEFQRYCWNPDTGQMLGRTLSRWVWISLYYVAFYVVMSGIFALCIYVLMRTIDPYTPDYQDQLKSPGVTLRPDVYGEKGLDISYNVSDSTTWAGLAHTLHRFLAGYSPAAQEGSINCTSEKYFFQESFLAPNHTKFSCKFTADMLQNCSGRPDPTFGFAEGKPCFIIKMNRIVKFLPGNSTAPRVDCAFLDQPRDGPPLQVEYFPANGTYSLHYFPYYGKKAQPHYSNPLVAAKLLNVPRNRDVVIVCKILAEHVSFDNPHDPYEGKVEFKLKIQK

Row | SMILES | IC50 [nM]
1 | COCCn1c(C)nc2cc(C(=O)N(C)CCO)c3c(c21)OC(c1ccc(F)cc1F)CC3 (racemic) [Example 11, 8-(2,4-Difluorophenyl)-N-(2-hydroxyethyl)-1-(2-methoxyethyl)-N,2-dimethyl-1,6,7,8-tetrahydrochromeno[7,8-d]imidazole-5-carboxamide] | 210
2 | COCCn1c(C)nc2cc(C(=O)N3CCC3)c3c(c21)OC(c1ccccc1)CC3 (racemic) [Example 15, 5-(Azetidin-1-ylcarbonyl)-1-(2-methoxyethyl)-2-methyl-8-phenyl-1,6,7,8-tetrahydrochromeno[7,8-d]imidazole] | 200
3 | COCCn1c(C)nc2cc(C(=O)N(C)C)c3c(c21)OC(c1ccccc1)CC3 (single isomer, unassigned; (+)) [Example 2, (+)-1-(2-Methoxyethyl)-N,N,2-trimethyl-8-phenyl-1,6,7,8-tetrahydrochromeno[7,8-d]imidazole-5-carboxamide] | 520
4 | COCCn1c(C)nc2cc(C(=O)N(C)C)c3c(c21)OC(c1ccc(F)cc1)CC3 (single isomer, unassigned; (+)) [Example 6, (+)-8-(4-Fluorophenyl)-1-(2-methoxyethyl)-N,N,2-trimethyl-1,6,7,8-tetrahydrochromeno[7,8-d]imidazole-5-carboxamide] | 230
5 | COCCn1c(C)nc2cc(C(=O)N(C)CCO)c3c(c21)OC(c1ccc(F)cc1F)CC3 (single isomer, unassigned; (+)) [Example 13, (+)-8-(2,4-Difluorophenyl)-N-(2-hydroxyethyl)-1-(2-methoxyethyl)-N,2-dimethyl-1,6,7,8-tetrahydrochromeno[7,8-d]imidazole-5-carboxamide] | 340
6 | COCCn1c(C)nc2cc(C(=O)N3CCC3)c3c(c21)OC(c1ccccc1)CC3 (single isomer, unassigned; (+)) [Example 17, (+)-5-(Azetidin-1-ylcarbonyl)-1-(2-methoxyethyl)-2-methyl-8-phenyl-1,6,7,8-tetrahydrochromeno[7,8-d]imidazole] | 1000
7 | Cc1nc2cc(C(=O)N(C)C)c3c(c2n1CCCO)OC(c1ccc(F)cc1)CC3 (centres unmarked) [Example 8, 8-(4-Fluorophenyl)-1-(3-hydroxypropyl)-N,N,2-trimethyl-1,6,7,8-tetrahydrochromeno[7,8-d]imidazole-5-carboxamide] | 340
8 | Cc1nc2cc(C(=O)N(C)C)c3c(c2n1Cc1ccon1)OC(c1ccc(F)cc1)CC3 (centres unmarked) [Example 9, 8-(4-Fluorophenyl)-1-(isoxazol-3-ylmethyl)-N,N,2-trimethyl-1,6,7,8-tetrahydrochromeno[7,8-d]imidazole-5-carboxamide] | 350
9 | COCCn1c(C)nc2cc(C(=O)N3CC(F)C3)c3c(c21)OC(c1ccccc1)CC3 (centres unmarked) [Example 14, 5-[(3-Fluoroazetidin-1-yl)carbonyl]-1-(2-methoxyethyl)-2-methyl-8-phenyl-1,6,7,8-tetrahydrochromeno[7,8-d]imidazole] | 270

Now those with a lower IC50, led by results:

Row | IC50 [nM] | SMILES
10 | 98 | COCCn1c(C)nc2cc(C(=O)N(C)C)c3c(c21)OC(c1ccccc1)CC3 (racemic) [Example 1, 1-(2-Methoxyethyl)-N,N,2-trimethyl-8-phenyl-1,6,7,8-tetrahydrochromeno[7,8-d]imidazole-5-carboxamide]
11 | 88 | COCCn1c(C)nc2cc(C(=O)N(C)C)c3c(c21)OC(c1ccc(F)cc1)CC3 (racemic) [Example 5, 8-(4-Fluorophenyl)-1-(2-methoxyethyl)-N,N,2-trimethyl-1,6,7,8-tetrahydrochromeno[7,8-d]imidazole-5-carboxamide]
12 | 68 | COCCn1c(C)nc2cc(C(=O)N(C)C)c3c(c21)OC(c1ccccc1)CC3 (single isomer, unassigned; (-)) [Example 3, (−)-1-(2-Methoxyethyl)-N,N,2-trimethyl-8-phenyl-1,6,7,8-tetrahydrochromeno[7,8-d]imidazole-5-carboxamide]
13 | 38 | COCCn1c(C)nc2cc(C(=O)N(C)C)c3c(c21)OC(c1ccc(F)cc1)CC3 (single isomer, unassigned; (-)) [Example 7, (−)-8-(4-Fluorophenyl)-1-(2-methoxyethyl)-N,N,2-trimethyl-1,6,7,8-tetrahydrochromeno[7,8-d]imidazole-5-carboxamide]
14 | 90 | COCCn1c(C)nc2cc(C(=O)N(C)CCO)c3c(c21)OC(c1ccc(F)cc1F)CC3 (single isomer, unassigned; (-)) [Example 12, (−)-8-(2,4-Difluorophenyl)-N-(2-hydroxyethyl)-1-(2-methoxyethyl)-N,2-dimethyl-1,6,7,8-tetrahydrochromeno[7,8-d]imidazole-5-carboxamide]
15 | 74 | COCCn1c(C)nc2cc(C(=O)N3CCC3)c3c(c21)OC(c1ccccc1)CC3 (single isomer, unassigned; (-)) [Example 16, (−)-5-(Azetidin-1-ylcarbonyl)-1-(2-methoxyethyl)-2-methyl-8-phenyl-1,6,7,8-tetrahydrochromeno[7,8-d]imidazole]
16 | 190 | COCCn1c(C)nc2cc(C(=O)N(C)CCO)c3c(c21)OC(c1ccccc1)CC3 (centres unmarked) [Example 4, N-(2-Hydroxyethyl)-1-(2-methoxyethyl)-N,2-dimethyl-8-phenyl-1,6,7,8-tetrahydrochromeno[7,8-d]imidazole-5-carboxamide]
17 | 100 | [2H]C([2H])([2H])N(C(=O)c1cc2nc(C)n(CCOC)c2c2c1CCC(c1ccccc1)O2)C([2H])([2H])[2H] (centres unmarked) [Example 10, N,N-Di[^2H3]methyl-1-(2-methoxyethyl)-2-methyl-8-phenyl-1,6,7,8-tetrahydrochromeno[7,8-d]imidazole-5-carboxamide]
